Test results reported in patent US11008333B2, “Crystalline forms of hydrochloride salts of thienopyrimidine compound” (HANMI PHARM. CO., LTD., priority 2015, dated 2021).
≈ marks a conversion by molar mass, not a printed value. Like-named read-outs stand apart in the source and are kept apart here. Each block holds one molecule with its values, some of them ahead of it.

What was measured:
[1] = Measurement of water solubility (HPLC); assay type: physicochemical; conditions: for pH of solution: solution of the water solubility test, 100 mg/mL in water
Protocol: Specifically, each sample of the polymorphs in an amount of 500 mg was added to 5 mL of water, blended at […] to 25° C. using a Voltamixer, and filtered with a GH Polypro membrane Acrodisc, PALL (pore size: 0.2 μm). The filtrate was diluted with a diluent used for HPLC in a 1:100 ratio to obtain the samples.

[2] = Dynamic vapor sorption (DVS), water absorption / hygroscopicity; assay type: physicochemical
Protocol: Dynamic vapor sorption (DVS) analysis was performed in a DVS advantage (Surface measurement system, United Kingdom) analyzer at 25° C. with a relative humidity of 0% to 90%. A sample in an amount of 10 mg was placed into a wire-mesh vapor sorption balance pan and then attached to a DVS advantage dynamic vapor sorption balance via surface measurement systems. Until a stable weight was achieved (99.5% completion of steps), the sample was applied to a ramping profile with a relative humidity of 10% to 90% with a 10% increase of the sample while maintaining the sample in each step. Upon completion of the sorption cycle, the sample was dried using the same process while maintaining a relative humidity of […]. The changes in the sample weight during the adsorption/desorption cycle (repeated 3 times) were recorded and the hygroscopicity of the sample was measured.

[3] = Storage under long-term, accelerated and stress testing conditions; assay type: physicochemical; conditions: for expected stability: expectation from DVS
[4] = tested on: cancer cells induced by a mutation in epidermal growth factor receptor (EGFR) tyrosine kinase; conditions: disclosed in WO 2011/162515; cited from earlier work
[5] = tested on: mutant epidermal growth factor receptor tyrosine kinase; conditions: disclosed in WO 2011/162515; cited from earlier work
[6] = non-ionic water, 500 mg in 5 mL (conc. of solution 100 mg/mL), 2θ° C. to 25° C., amount dissolved based on compound of Formula 1, HPLC
[7] = relative humidity of 40% or higher
[8] = relative humidity of 10% to 70%
[9] = relative humidity of 70% or higher
[10] = relative humidity of 10% to 90%, 25° C.
[11] = accelerated condition (40° C., relative humidity 75%)
[12] = long-term storage condition (25° C., relative humidity 60%)

Compound: C=CC(=O)Nc1cccc(Oc2nc(Nc3ccc(N4CCN(C)CC4)cc3)nc3ccsc23)c1 [Example 4, N-(3-(2-(4-(4-methylpiperazin-1-yl)phenylamino)thieno[3,2-d]pyrimidin-4-yloxy)phenyl)acrylamide]
Solubility [1, 6]: 10660 µg/mL (≈ 21.9 mM)
pH of solution [1]: 1.7
level of water absorption (hygroscopicity) in DVS ([2]; relative humidity of 10% to 30%): very high
level of water absorption (hygroscopicity) in DVS ([2]; relative humidity of 10% to 30%, listed as ex. 4): about 6%
level of water absorption (hygroscopicity) in DVS [2, 7]: very weak
level of water absorption (hygroscopicity) in DVS ([2]; relative humidity of 40% or higher, listed as ex. 4): very low and constant level

Compound: C=CC(=O)Nc1cccc(Oc2nc(Nc3ccc(N4CCN(C)CC4)cc3)nc3ccsc23)c1 [Example 3, N-(3-(2-(4-(4-methylpiperazin-1-yl)phenylamino)thieno[3,2-d]pyrimidin-4-yloxy)phenyl)acrylamide]
Solubility [1, 6]: 7760 µg/mL (≈ 15.9 mM)
pH of solution [1]: 2.1
level of water absorption (hygroscopicity) in DVS ([2]; relative humidity of 10% to 40%): very low level
level of water absorption (hygroscopicity) in DVS [2, 7]: about 9%
level of water absorption (hygroscopicity) in DVS ([2]; relative humidity of 40% or higher, listed as ex. 3): about 9%

Compound: C=CC(=O)Nc1cccc(Oc2nc(Nc3ccc(N4CCN(C)CC4)cc3)nc3ccsc23)c1 [Example 5, N-(3-(2-(4-(4-methylpiperazin-1-yl)phenylamino)thieno[3,2-d]pyrimidin-4-yloxy)phenyl)acrylamide]
Solubility [1, 6]: 420 µg/mL (≈ 0.863 mM)
pH of solution [1]: 4.7
level of water absorption (hygroscopicity) in DVS [2, 8]: very low
level of water absorption (hygroscopicity) in DVS ([2]; relative humidity of 10% to 70%, listed as ex. 5): very low level
level of water absorption (hygroscopicity) in DVS [2, 9]: about 7%
level of water absorption (hygroscopicity) in DVS ([2]; relative humidity of 70% or higher, listed as ex. 5): about 7%

Compound: C=CC(=O)Nc1cccc(Oc2nc(Nc3ccc(N4CCN(C)CC4)cc3)nc3ccsc23)c1 [Example 1, N-(3-(2-(4-(4-methylpiperazin-1-yl)phenylamino)thieno[3,2-d]pyrimidin-4-yloxy)phenyl)acrylamide]
water solubility compared with the other forms ([1]; comparison of Table 16): highest water solubility
Solubility [1, 6]: 50390 µg/mL (≈ 104 mM)
pH of solution [1]: 1.7
reversible water sorption and desorption in DVS ([2]; complete range of 0-90% RH): about 3%
level of water absorption (hygroscopicity) in DVS [2, 10]: 2-3%
level of water absorption (hygroscopicity) in DVS ([2]; relative humidity of 10% to 90%, 25° C., listed as ex. 1): very low level of change
stability [3, 11]: fully stable
stability [3, 12]: fully stable
stability ([3]; stress testing condition (60° C.)): fully stable

Continued, in another order:

Solubility [1, 6]: 0.1 µg/mL
pH of solution [1]: 7.3
Solubility ([1]; water, 20 °C, water, thermodynamic from solid, amorphous free base, read-out: water solubility): < 0.1 µg/mL
Compound: C=CC(=O)Nc1cccc(Oc2nc(Nc3ccc(N4CCN(C)CC4)cc3)nc3ccsc23)c1 [Formula 1 (amorphous free base), N-(3-(2-(4-(4-methylpiperazin-1-yl)phenylamino)thieno[3,2-d]pyrimidin-4-yloxy)phenyl)acrylamide]
inhibitory activity against growth of cancer cells induced by EGFR mutation, and drug resistance thereof [4]: selective and effective inhibitory activity
inhibitory activity for mutant EGFR tyrosine kinase [5]: selective inhibitory activity

level of water absorption (hygroscopicity) in DVS [2, 10]: very high level
expected stability [3, 11]: unstable
expected stability [3, 12]: unstable
Compound: C=CC(=O)Nc1cccc(Oc2nc(Nc3ccc(N4CCN(C)CC4)cc3)nc3ccsc23)c1 [Comparative Example 1, N-(3-(2-(4-(4-methylpiperazin-1-yl)phenylamino)thieno[3,2-d]pyrimidin-4-yloxy)phenyl)acrylamide]

level of water absorption (hygroscopicity) in DVS [2, 8]: very low
level of water absorption (hygroscopicity) in DVS ([2]; relative humidity of 10% to 90%, 25° C., listed as ex. 7): about 14%
level of water absorption (hygroscopicity) in DVS [2, 9]: about 14%
Compound: C=CC(=O)Nc1cccc(Oc2nc(Nc3ccc(N4CCN(C)CC4)cc3)nc3ccsc23)c1 [Example 7, N-(3-(2-(4-(4-methylpiperazin-1-yl)phenylamino)thieno[3,2-d]pyrimidin-4-yloxy)phenyl)acrylamide]

Solubility [1, 6]: 570 µg/mL (≈ 1.17 mM)
pH of solution [1]: 4.9
level of water absorption (hygroscopicity) in DVS [2, 10]: about 2%
level of water absorption (hygroscopicity) in DVS ([2]; relative humidity of 10% to 90%, 25° C., listed as ex. 6): about 2%
Compound: C=CC(=O)Nc1cccc(Oc2nc(Nc3ccc(N4CCN(C)CC4)cc3)nc3ccsc23)c1 [Example 6, N-(3-(2-(4-(4-methylpiperazin-1-yl)phenylamino)thieno[3,2-d]pyrimidin-4-yloxy)phenyl)acrylamide]
